From the supplement of paper PMC10307832

Legend:
Experiment in all cases: relative viability (nuclei count vs DMSO), 5 days (fraction); higher = more cells survive
[1] = compound: COC1=C(C=C(C=C1)C2=CC3=NC=CN3C(=N2)NC4=C(C=CC=N4)C(=O)N)OC [BAY61-3606] + CC1(C)CCC(c2ccc(Cl)cc2)=C(CN2CCN(c3ccc(C(=O)NS(=O)(=O)c4ccc(N[C@H](CCN5CCOCC5)CSc5ccccc5)c(S(=O)(=O)C(F)(F)F)c4)cc3)CC2)C1 [Navitoclax] (partner 0.5 µM)
Procedure, shortened: (§1)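 A single step with final 0.05% Triton X-100, 1% formaldehyde and 1 ug/ml Hoechst fixed the cells and stained nuclei 5 days after treatment. Lung cancer cell lines in 1536-well plates had been treated by pin tool the day after seeding with one drug alone or a fixed anchor-drug dose plus five library-drug doses (not always all listed) in √10 steps, and nuclei were counted on 4× images. Relative viability is the ratio of nuclei in treated wells to nuclei in vehicle wells, taken as the median of duplicate plates.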

[2] = compound: COc1cccc2c1C(=O)c1c(O)c3c(c(O)c1C2=O)C[C@@](O)(C(=O)CO)C[C@@H]3O[C@H]1C[C@H](N)[C@H](O)[C@H](C)O1 [Doxorubicin]
Procedure, shortened: (§2)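 For viability, nuclei in each treated well were divided by nuclei in vehicle wells and the median across plates was taken. Lung cancer cell lines in 1536-well plates were pinned with five library-drug doses (not always all listed) spaced by √10, cultured 5 days without medium change, and imaged at 4× after Hoechst staining, with plates passing only at control CV below 25% and at least one doubling.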

[3] = compound: COC1=C(C=C(C=C1)C2=CC3=NC=CN3C(=N2)NC4=C(C=CC=N4)C(=O)N)OC [BAY61-3606]
Procedure, shortened: as §2

[4] = compound: COc1cccc2c1C(=O)c1c(O)c3c(c(O)c1C2=O)C[C@@](O)(C(=O)CO)C[C@@H]3O[C@H]1C[C@H](N)[C@H](O)[C@H](C)O1 [Doxorubicin] + N=C(N)NC(=N)NCCc1ccccc1 [Phenformin] (partner 250 µM)
Procedure, shortened: as §1

Row | Cell Line | relative viability ([1]; first compound 0.02 µM) | relative viability ([1]; first compound 0.06325 µM) | relative viability ([1]; first compound 0.2 µM) | relative viability ([1]; first compound 0.6325 µM) | relative viability ([1]; first compound 2 µM) | relative viability ([2]; 0.001 µM) | relative viability ([2]; 0.003162 µM) | relative viability ([2]; 0.01 µM) | relative viability ([2]; 0.03162 µM) | relative viability ([2]; 0.1 µM) | relative viability ([3]; 0.02 µM) | relative viability ([3]; 0.06325 µM) | relative viability ([3]; 0.2 µM) | relative viability ([3]; 0.6325 µM) | relative viability ([3]; 2 µM) | relative viability ([4]; first compound 0.001 µM) | relative viability ([4]; first compound 0.003162 µM) | relative viability ([4]; first compound 0.01 µM) | relative viability ([4]; first compound 0.03162 µM) | relative viability ([4]; first compound 0.1 µM)
1 | Calu-6 | 0.84 | 0.981 | 0.799 | 0.788 | 0.607 | 0.966 | 1.02 | 0.929 | 0.566 | 0.431 | 1.07 | 1.05 | 0.979 | 0.963 | 0.807 | – | – | – | – | –
2 | LCLC-103H | – | – | – | – | – | 0.966 | 1.04 | 0.981 | 1.02 | 0.957 | 1.07 | 0.992 | 0.993 | 1.03 | 0.987 | 0.341 | 0.37 | 0.345 | 0.293 | 0.354
3 | CAL-12T | 1.23 | 1.42 | 1.2 | 1.27 | 0.67 | 0.973 | 1.05 | 0.926 | 0.541 | 0.349 | 1.02 | 1.07 | 0.938 | 0.99 | 0.628 | 0.514 | 0.538 | 0.412 | 0.221 | 0.129
4 | NCI-H23 | 0.936 | 0.809 | 0.775 | 0.983 | 0.551 | – | 1.06 | 0.978 | 0.654 | 0.532 | 1.11 | 1.03 | 0.78 | 0.947 | 0.789 | – | 0.84 | 0.806 | 0.58 | 0.486
5 | NCI-H1651 | 1.21 | 1.09 | 0.964 | 1.17 | 0.909 | 0.949 | 0.96 | 0.925 | 0.642 | 0.635 | 1.01 | 0.93 | 0.986 | 1.01 | 0.883 | 0.319 | 0.336 | 0.259 | 0.154 | 0.153
6 | BEN | 0.0718 | 0.0633 | 0.0644 | 0.0773 | 0.0651 | 1.19 | 1.03 | 0.985 | 0.683 | 0.85 | 1.05 | 0.891 | 1.1 | 1.07 | 1.05 | 0.251 | 0.231 | 0.278 | 0.256 | 0.283
7 | ABC-1 | – | – | – | – | – | 0.943 | 1.01 | 0.811 | 0.414 | 0.307 | 1.04 | 0.942 | 0.986 | 1.03 | 0.854 | 0.223 | 0.161 | 0.206 | 0.188 | 0.156
8 | NCI-H358 | – | – | – | – | – | 0.975 | 1.04 | 0.761 | 0.235 | 0.199 | 0.954 | 0.947 | 0.87 | 0.864 | 0.369 | 0.299 | 0.307 | 0.176 | 0.0992 | 0.0721
9 | EBC-1 | 0.421 | 0.362 | 0.525 | 0.504 | 0.281 | 1 | 1.09 | 1.01 | 0.702 | 0.534 | 1.04 | 0.999 | 0.953 | 1.04 | 0.888 | – | – | – | – | –
10 | NCI-H1563 | – | – | – | – | – | 0.939 | 0.939 | 0.747 | 0.698 | 0.683 | 1.16 | 0.993 | 1.01 | 0.994 | 0.814 | 0.618 | 0.573 | 0.546 | 0.524 | 0.501
11 | NCI-H1648 | – | – | – | – | – | 0.898 | 1.07 | 0.719 | 0.864 | 0.882 | 0.832 | 0.89 | 1.16 | 0.74 | 0.804 | – | – | – | – | –
12 | NCI-H661 | – | – | – | – | – | 1.01 | 1.06 | 0.957 | 0.853 | 0.634 | 1.02 | 0.993 | 0.991 | 0.963 | 0.976 | 0.27 | 0.284 | 0.265 | 0.244 | 0.238
13 | NCI-H650 | – | – | – | – | – | 1 | 0.86 | 0.92 | 0.83 | 0.741 | 1 | 0.802 | 0.818 | 0.942 | 0.745 | 0.543 | 0.419 | 0.509 | 0.424 | 0.373
14 | NCI-H1299 | 1.05 | 1.06 | 1.05 | 1.07 | 1.05 | 1.02 | 1.05 | 0.984 | 1.02 | 0.943 | 1.02 | 1.01 | 1.02 | 1.04 | 0.989 | – | – | – | – | –
15 | NCI-H522 | – | – | – | – | – | 0.741 | 0.938 | 0.988 | 0.838 | 0.894 | 0.961 | 0.907 | 0.953 | 0.954 | 0.933 | 0.595 | 0.622 | 0.585 | 0.543 | 0.645
16 | IA-LM | 0.812 | – | 0.827 | 0.793 | 0.725 | 0.902 | 1.04 | 0.889 | 0.749 | 0.508 | 0.984 | 0.864 | 0.956 | 1.03 | 0.86 | – | – | – | – | –
17 | SW 900 | – | – | – | – | – | 0.671 | 0.992 | 0.774 | 0.665 | 0.404 | 0.895 | 0.762 | 0.678 | 0.937 | 0.813 | 0.704 | 0.685 | 0.607 | 0.328 | 0.138
